Data as given in the NIST ThermoML archive (doi:10.1021/je700428f).

Test: xn = mol fraction of the nth substance listed
Settings: 101 kPa, Liquid; for viscosity: Capillary tube (Ostwald / Ubbelohde) method

COC(C)(C)C [2-methoxy-2-methylpropane] + CCCCCCCCCC
Settings	mass density [kg/m3]	viscosity [mPa·s]
273.15 K, x1 = 0.1016	–	1.2
273.15 K, x1 = 0.1019	745.52	–
273.15 K, x1 = 0.2002	–	1.093
273.15 K, x1 = 0.2041	746.17	–
273.15 K, x1 = 0.3003	–	1.004
273.15 K, x1 = 0.3077	747.06	–
273.15 K, x1 = 0.3999	748	–
273.15 K, x1 = 0.4013	–	0.909
273.15 K, x1 = 0.4992	–	0.822
273.15 K, x1 = 0.5005	749.23	–
273.15 K, x1 = 0.6005	–	0.741
273.15 K, x1 = 0.6066	750.84	–
273.15 K, x1 = 0.6866	752.32	–
273.15 K, x1 = 0.7	–	0.659
273.15 K, x1 = 0.7973	754.83	–
273.15 K, x1 = 0.8005	–	0.584
273.15 K, x1 = 0.8996	–	0.513
273.15 K, x1 = 0.8999	757.82	–
273.15 K, x1 = 1	761.34	–
278.15 K, x1 = 0.1016	–	1.092
278.15 K, x1 = 0.1019	741.7	–
278.15 K, x1 = 0.2002	–	1.002
278.15 K, x1 = 0.2041	742.28	–
278.15 K, x1 = 0.3003	–	0.924
278.15 K, x1 = 0.3077	743.09	–
278.15 K, x1 = 0.3999	743.94	–
278.15 K, x1 = 0.4013	–	0.841
278.15 K, x1 = 0.4992	–	0.765
278.15 K, x1 = 0.5005	745.06	–
278.15 K, x1 = 0.6005	–	0.689
278.15 K, x1 = 0.6066	746.53	–
278.15 K, x1 = 0.6866	747.9	–
278.15 K, x1 = 0.7	–	0.615
278.15 K, x1 = 0.7973	750.21	–
278.15 K, x1 = 0.8005	–	0.547
278.15 K, x1 = 0.8996	–	0.481
278.15 K, x1 = 0.8999	752.99	–
278.15 K, x1 = 1	756.14	–
283.15 K, x1 = 0.1016	–	1.001
283.15 K, x1 = 0.1019	737.88	–
283.15 K, x1 = 0.2002	–	0.923
283.15 K, x1 = 0.2041	738.38	–
283.15 K, x1 = 0.3003	–	0.855
283.15 K, x1 = 0.3077	739.1	–
283.15 K, x1 = 0.3999	739.86	–
283.15 K, x1 = 0.4013	–	0.779
283.15 K, x1 = 0.4992	–	0.713
283.15 K, x1 = 0.5005	740.87	–
283.15 K, x1 = 0.6005	–	0.643
283.15 K, x1 = 0.6066	742.2	–
283.15 K, x1 = 0.6866	743.44	–
283.15 K, x1 = 0.7	–	0.575
283.15 K, x1 = 0.7973	745.55	–
283.15 K, x1 = 0.8005	–	0.513
283.15 K, x1 = 0.8996	–	0.452
283.15 K, x1 = 0.8999	748.12	–
283.15 K, x1 = 1	751.02	–
288.15 K, x1 = 0.1016	–	0.923
288.15 K, x1 = 0.1019	734.04	–
288.15 K, x1 = 0.2002	–	0.856
288.15 K, x1 = 0.2041	734.47	–
288.15 K, x1 = 0.3003	–	0.793
288.15 K, x1 = 0.3077	735.1	–
288.15 K, x1 = 0.3999	735.77	–
288.15 K, x1 = 0.4013	–	0.726
288.15 K, x1 = 0.4992	–	0.664
288.15 K, x1 = 0.5005	736.66	–
288.15 K, x1 = 0.6005	–	0.601
288.15 K, x1 = 0.6066	737.84	–
288.15 K, x1 = 0.6866	738.97	–
288.15 K, x1 = 0.7	–	0.54
288.15 K, x1 = 0.7973	740.88	–
288.15 K, x1 = 0.8005	–	0.481
288.15 K, x1 = 0.8996	–	0.426
288.15 K, x1 = 0.8999	743.23	–
288.15 K, x1 = 1	745.85	–
293.15 K, x1 = 0.1016	–	0.855
293.15 K, x1 = 0.1019	730.2	–
293.15 K, x1 = 0.2002	–	0.795
293.15 K, x1 = 0.2041	730.55	–
293.15 K, x1 = 0.3003	–	0.743
293.15 K, x1 = 0.3077	731.09	–
293.15 K, x1 = 0.3999	731.66	–
293.15 K, x1 = 0.4013	–	0.678
293.15 K, x1 = 0.4992	–	0.622
293.15 K, x1 = 0.5005	732.44	–
293.15 K, x1 = 0.6005	–	0.563
293.15 K, x1 = 0.6066	733.47	–
293.15 K, x1 = 0.6866	734.47	–
293.15 K, x1 = 0.7	–	0.507
293.15 K, x1 = 0.7973	736.17	–
293.15 K, x1 = 0.8005	–	0.454
293.15 K, x1 = 0.8996	–	0.402
293.15 K, x1 = 0.8999	738.3	–
293.15 K, x1 = 1	740.65	–
298.15 K, x1 = 0.1016	–	0.797
298.15 K, x1 = 0.1019	726.35	–
298.15 K, x1 = 0.2002	–	0.742
298.15 K, x1 = 0.2041	726.62	–
298.15 K, x1 = 0.3003	–	0.692
298.15 K, x1 = 0.3077	727.06	–
298.15 K, x1 = 0.3999	727.53	–
298.15 K, x1 = 0.4013	–	0.635
298.15 K, x1 = 0.4992	–	0.584
298.15 K, x1 = 0.5005	728.19	–
298.15 K, x1 = 0.6005	–	0.531
298.15 K, x1 = 0.6066	729.07	–
298.15 K, x1 = 0.6866	729.94	–
298.15 K, x1 = 0.7	–	0.479
298.15 K, x1 = 0.7973	731.44	–
298.15 K, x1 = 0.8005	–	0.428
298.15 K, x1 = 0.8996	–	0.379
298.15 K, x1 = 0.8999	733.33	–
298.15 K, x1 = 1	735.4	–
303.15 K, x1 = 0.1016	–	0.744
303.15 K, x1 = 0.1019	722.46	–
303.15 K, x1 = 0.2002	–	0.695
303.15 K, x1 = 0.2041	722.68	–
303.15 K, x1 = 0.3003	–	0.65
303.15 K, x1 = 0.3077	723.02	–
303.15 K, x1 = 0.3999	723.38	–
303.15 K, x1 = 0.4013	–	0.597
303.15 K, x1 = 0.4992	–	0.55
303.15 K, x1 = 0.5005	723.93	–
303.15 K, x1 = 0.6005	–	0.5
303.15 K, x1 = 0.6066	724.65	–
303.15 K, x1 = 0.6866	725.39	–
303.15 K, x1 = 0.7	–	0.452
303.15 K, x1 = 0.7973	726.66	–
303.15 K, x1 = 0.8005	–	0.405
303.15 K, x1 = 0.8996	–	0.358
303.15 K, x1 = 0.8999	728.32	–
303.15 K, x1 = 1	730.1	–
308.15 K, x1 = 0.1016	–	0.698
308.15 K, x1 = 0.1019	718.59	–
308.15 K, x1 = 0.2002	–	0.653
308.15 K, x1 = 0.2041	718.72	–
308.15 K, x1 = 0.3003	–	0.606
308.15 K, x1 = 0.3077	718.96	–
308.15 K, x1 = 0.3999	719.22	–
308.15 K, x1 = 0.4013	–	0.562
308.15 K, x1 = 0.4992	–	0.519
308.15 K, x1 = 0.6005	–	0.474
308.15 K, x1 = 0.7	–	0.428
308.15 K, x1 = 0.8005	–	0.382
